The target in test [1] is Protein kinase C alpha type (Homo sapiens, UniProt P17252). Type of test: cell-based. Conditions: sf9.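 Further: inhibition of PKCalpha kinase activity measured in an enzyme assay with histone as the phosphorylation substrate; in other assays of this panel Not Active means under 50% inhibition at 10 µM.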
The target of test [2] is Vascular endothelial growth factor receptor 1 (Homo sapiens, UniProt P17948). Type of test: cell-based. Conditions: huvec. Further: in other assays of this panel Not Active means under 50% inhibition at 10 µM.
Test [3] concerns the target T1, Nitric oxide synthase, inducible (Mus musculus, UniProt P29477).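 Further: inhibition of iNOS enzyme activity measured with L-arginine as substrate; in other assays of this panel Not Active means under 50% inhibition at 10 µM.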
T1 sequence (P29477 whole entry): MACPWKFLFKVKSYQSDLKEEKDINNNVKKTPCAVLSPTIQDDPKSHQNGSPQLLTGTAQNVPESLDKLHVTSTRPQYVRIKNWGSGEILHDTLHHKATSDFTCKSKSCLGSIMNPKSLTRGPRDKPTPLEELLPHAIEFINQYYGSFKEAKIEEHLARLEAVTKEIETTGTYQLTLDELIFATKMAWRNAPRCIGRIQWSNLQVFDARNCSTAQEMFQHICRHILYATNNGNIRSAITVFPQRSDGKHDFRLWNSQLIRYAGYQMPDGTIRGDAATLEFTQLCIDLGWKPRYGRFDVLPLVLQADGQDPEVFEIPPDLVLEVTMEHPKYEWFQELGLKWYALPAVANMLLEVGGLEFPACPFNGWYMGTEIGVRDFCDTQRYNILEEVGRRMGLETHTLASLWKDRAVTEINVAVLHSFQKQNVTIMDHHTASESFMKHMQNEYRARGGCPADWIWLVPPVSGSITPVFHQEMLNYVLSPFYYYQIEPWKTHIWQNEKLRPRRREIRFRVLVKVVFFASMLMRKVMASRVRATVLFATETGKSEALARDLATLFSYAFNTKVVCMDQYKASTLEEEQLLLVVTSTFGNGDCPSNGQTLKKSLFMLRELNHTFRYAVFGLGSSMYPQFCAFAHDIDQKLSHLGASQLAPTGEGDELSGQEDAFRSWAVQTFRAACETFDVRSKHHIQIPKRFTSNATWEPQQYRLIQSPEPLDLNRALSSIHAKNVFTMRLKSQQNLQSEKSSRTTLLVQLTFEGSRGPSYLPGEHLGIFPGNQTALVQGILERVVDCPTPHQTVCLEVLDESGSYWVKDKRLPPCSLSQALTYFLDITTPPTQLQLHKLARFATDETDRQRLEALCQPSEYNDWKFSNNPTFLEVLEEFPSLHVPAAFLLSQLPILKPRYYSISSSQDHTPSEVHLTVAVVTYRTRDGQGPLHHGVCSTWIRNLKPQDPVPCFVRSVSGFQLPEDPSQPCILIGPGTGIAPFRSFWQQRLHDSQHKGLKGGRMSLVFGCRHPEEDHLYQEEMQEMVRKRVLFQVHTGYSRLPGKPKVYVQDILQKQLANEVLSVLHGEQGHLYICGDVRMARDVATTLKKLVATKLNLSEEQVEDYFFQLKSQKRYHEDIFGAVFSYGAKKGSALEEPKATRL
The arrangement: species or system Escherichia coli.

For a further test, the target named is Vasopressin V1a receptor (Homo sapiens, UniProt P37288). Type of test: cell membranes, Membrane. Conditions: hek293. Further: in other assays of this panel Not Active means under 50% inhibition at 10 µM.
The target of the next test is Adenosine receptor A2a (Homo sapiens, UniProt P29274). The test can be described thus: DRUGMATRIX: Adenosine A2A radioligand binding (ligand: […]). Type of test: cell membranes, HEK293, Membrane. To be noted: hek293; Not Active = under 50% inhibition at 10 µM.
Test [4] deals with Aldo-keto reductase family 1 member B1 (Rattus norvegicus, UniProt P07943). The test can be described thus: biochemical. Type of test: tissue-based, Lens of camera-type eye.
Test [5] can be described thus: DRUGMATRIX: GABAA, Muscimol, Central radioligand binding (ligand: [3H] Muscimol). Type of test: cell membranes, Rattus norvegicus, Wistar, Brain, Membrane. To be noted: Not Active = under 50% inhibition at 10 µM.
Another test has as its target T2, Adenosine receptor A1 (Homo sapiens, UniProt P30542).
T2 sequence (P30542 whole entry): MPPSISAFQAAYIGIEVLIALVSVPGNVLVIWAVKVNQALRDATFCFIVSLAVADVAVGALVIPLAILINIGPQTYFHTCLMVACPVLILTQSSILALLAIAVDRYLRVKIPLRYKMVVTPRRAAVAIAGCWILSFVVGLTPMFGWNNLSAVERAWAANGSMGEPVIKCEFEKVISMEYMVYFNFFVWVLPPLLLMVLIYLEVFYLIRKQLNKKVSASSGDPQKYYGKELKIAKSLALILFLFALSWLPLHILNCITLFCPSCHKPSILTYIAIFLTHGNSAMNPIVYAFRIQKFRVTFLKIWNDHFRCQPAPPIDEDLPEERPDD
Type of test: cell membranes, Membrane. Conditions: cho.

In test [6] the target is T3, Muscarinic acetylcholine receptor M4 (Homo sapiens, UniProt P08173). Further: in other assays of this panel Not Active means under 50% inhibition at 10 µM.
T3 sequence (P08173 whole entry): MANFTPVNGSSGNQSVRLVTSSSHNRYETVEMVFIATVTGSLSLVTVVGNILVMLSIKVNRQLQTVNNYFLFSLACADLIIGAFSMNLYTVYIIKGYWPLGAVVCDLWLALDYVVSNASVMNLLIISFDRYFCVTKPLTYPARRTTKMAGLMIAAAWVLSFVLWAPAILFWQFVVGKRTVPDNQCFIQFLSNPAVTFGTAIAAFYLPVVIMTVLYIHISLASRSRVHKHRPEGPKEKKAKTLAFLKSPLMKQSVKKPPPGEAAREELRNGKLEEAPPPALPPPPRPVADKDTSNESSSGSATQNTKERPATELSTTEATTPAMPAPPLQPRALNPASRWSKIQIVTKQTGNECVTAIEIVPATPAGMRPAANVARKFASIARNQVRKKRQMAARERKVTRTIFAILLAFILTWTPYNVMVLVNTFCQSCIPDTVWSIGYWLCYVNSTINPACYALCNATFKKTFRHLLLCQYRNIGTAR
Type of test: cell membranes, CHO-K1, Membrane.

Test [7] is described as follows: DRUGMATRIX: GABAA, Chloride Channel, TBOB radioligand binding (ligand: [3H] TBOB). Type of test: cell membranes, Rattus norvegicus, Wistar, Cerebral cortex, Membrane. Conditions: Not Active = under 50% inhibition at 10 µM.
Test [8] concerns the target Tyrosine-protein kinase Lck (Homo sapiens, UniProt P06239). The test can be described thus: DRUGMATRIX: Protein Tyrosine Kinase, LCK enzyme inhibition (substrate: Poly(Glu:Tyr)). Type of test: cell-based, Insect cells. Conditions: insect cells; Not Active = under 50% inhibition at 10 µM.

Chain of Vasopressin V1a receptor (P37288 whole entry): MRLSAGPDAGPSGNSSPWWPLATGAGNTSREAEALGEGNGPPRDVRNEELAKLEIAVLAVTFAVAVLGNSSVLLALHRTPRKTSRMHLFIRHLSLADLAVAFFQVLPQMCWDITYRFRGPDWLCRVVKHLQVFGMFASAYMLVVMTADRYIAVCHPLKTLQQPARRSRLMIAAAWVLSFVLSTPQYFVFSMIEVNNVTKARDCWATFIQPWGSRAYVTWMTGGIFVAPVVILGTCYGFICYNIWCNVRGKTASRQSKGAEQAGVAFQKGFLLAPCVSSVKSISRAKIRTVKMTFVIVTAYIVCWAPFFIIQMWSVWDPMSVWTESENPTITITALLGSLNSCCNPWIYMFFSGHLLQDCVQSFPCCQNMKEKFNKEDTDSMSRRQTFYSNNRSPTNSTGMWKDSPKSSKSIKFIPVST
Chain of Adenosine receptor A2a (P29274 whole entry): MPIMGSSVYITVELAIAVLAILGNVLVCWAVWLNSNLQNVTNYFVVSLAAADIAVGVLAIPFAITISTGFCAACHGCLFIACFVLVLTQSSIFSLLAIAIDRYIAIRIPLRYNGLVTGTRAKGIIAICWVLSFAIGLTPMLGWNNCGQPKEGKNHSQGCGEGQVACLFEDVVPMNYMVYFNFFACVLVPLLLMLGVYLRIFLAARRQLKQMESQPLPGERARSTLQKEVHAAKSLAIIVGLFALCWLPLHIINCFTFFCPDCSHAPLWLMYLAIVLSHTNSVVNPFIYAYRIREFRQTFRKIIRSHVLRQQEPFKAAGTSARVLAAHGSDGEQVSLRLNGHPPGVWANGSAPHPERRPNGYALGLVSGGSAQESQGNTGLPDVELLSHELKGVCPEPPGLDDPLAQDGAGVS
Chain of Vascular endothelial growth factor receptor 1 (P17948 whole entry): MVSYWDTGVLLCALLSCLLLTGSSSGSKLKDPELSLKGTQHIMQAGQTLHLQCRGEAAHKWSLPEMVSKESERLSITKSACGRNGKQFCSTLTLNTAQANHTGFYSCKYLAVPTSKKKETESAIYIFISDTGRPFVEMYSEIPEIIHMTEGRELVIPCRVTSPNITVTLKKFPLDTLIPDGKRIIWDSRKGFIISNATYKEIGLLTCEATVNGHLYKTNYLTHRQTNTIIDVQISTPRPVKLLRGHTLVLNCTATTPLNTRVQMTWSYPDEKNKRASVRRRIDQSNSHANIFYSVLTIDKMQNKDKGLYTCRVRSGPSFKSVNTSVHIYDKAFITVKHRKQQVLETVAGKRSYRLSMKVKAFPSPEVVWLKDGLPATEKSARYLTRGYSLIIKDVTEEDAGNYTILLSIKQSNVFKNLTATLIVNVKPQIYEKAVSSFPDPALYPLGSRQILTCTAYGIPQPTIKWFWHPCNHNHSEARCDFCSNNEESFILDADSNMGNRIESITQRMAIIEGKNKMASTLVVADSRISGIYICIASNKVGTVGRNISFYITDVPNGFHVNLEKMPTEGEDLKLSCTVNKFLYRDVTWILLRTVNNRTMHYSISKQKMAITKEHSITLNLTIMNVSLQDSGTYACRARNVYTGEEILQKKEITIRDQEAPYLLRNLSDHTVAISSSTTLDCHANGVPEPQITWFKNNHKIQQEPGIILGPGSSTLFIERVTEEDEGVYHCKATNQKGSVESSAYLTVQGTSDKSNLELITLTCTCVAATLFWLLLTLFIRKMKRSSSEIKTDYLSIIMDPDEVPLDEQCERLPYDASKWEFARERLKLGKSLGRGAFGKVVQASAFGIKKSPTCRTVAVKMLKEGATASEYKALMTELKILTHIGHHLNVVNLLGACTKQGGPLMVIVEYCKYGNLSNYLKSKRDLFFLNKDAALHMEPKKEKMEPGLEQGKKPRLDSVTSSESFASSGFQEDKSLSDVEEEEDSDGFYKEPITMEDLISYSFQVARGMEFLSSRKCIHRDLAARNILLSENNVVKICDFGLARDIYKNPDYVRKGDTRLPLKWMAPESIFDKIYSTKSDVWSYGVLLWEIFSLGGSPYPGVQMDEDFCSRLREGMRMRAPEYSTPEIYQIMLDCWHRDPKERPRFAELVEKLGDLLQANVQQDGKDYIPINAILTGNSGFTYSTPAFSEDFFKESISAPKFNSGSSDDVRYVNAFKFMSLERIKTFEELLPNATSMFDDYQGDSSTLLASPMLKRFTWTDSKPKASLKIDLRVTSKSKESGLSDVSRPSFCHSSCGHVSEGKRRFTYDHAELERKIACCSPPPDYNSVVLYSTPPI
Chain of Tyrosine-protein kinase Lck (P06239 whole entry): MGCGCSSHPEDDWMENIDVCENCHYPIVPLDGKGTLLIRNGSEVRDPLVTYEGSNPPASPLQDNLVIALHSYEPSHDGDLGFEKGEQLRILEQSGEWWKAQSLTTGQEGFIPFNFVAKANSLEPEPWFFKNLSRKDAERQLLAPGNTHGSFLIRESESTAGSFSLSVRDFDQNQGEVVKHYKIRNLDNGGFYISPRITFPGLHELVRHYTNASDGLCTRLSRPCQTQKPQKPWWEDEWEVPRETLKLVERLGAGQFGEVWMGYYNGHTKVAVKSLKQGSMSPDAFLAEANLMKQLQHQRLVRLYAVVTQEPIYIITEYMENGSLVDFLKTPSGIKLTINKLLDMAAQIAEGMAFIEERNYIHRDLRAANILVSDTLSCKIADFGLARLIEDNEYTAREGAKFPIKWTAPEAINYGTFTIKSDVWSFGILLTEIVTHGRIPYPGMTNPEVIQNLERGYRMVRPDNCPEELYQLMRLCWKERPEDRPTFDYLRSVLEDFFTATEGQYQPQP

Usually IC50 stands for the concentration needed to halve the response being measured. For orientation: Ki means a measure of affinity in units of concentration, obtained from inhibition or displacement. Take `CC1=C(CC(=O)O)c2cc(F)ccc2/C1=C\c1ccc([S+](C)[O-])cc1` (stereo unspecified): the 50% inhibitory concentration (IC50) entry in test [1] is “Not Active”; in test [2], “Not Active”; in test [3], “Not Active”; against Vasopressin V1a receptor, “Not Active”; on Adenosine receptor A2a it was “Not Active”; in test [4] (read-out: IC50) it was 435 nM. Further, the IC50 result (in test [5]; against Adenosine receptor A1; in [6] (cho-k1); in test [7]; in test [8]) was “Not Active” in each case. In addition, the inhibition constant (Ki) entry in test [5] and in test [7] was “Not Active” throughout.

In the case of `N[C@H](CSC(=S)NCc1ccccc1)C(=O)O`, the IC50 result (in [1]; in [2]; in [3]; against Vasopressin V1a receptor; on Adenosine receptor A2a; in test [4]) was “Not Active” each time. The 50% inhibitory concentration (IC50) result (in test [5]; against Adenosine receptor A1; in [6] (cho-k1); in test [7]; in test [8]) was “Not Active” each time. Further, the inhibitory constant (Ki) entry in [5] and in test [7] was “Not Active” throughout.

Take `CC(=O)N[C@@H]1[C@H](Oc2c3cc4cc2Oc2ccc(cc2Cl)[C@@H](O[C@@H]2O[C@@H](CO)[C@@H](O)[C@H](O)[C@@H]2NC(C)=O)[C@@H]2NC(=O)[C@H](NC(=O)[C@@H]4NC(=O)[C@H]4NC(=O)[C@@H](Cc5ccc(c(Cl)c5)O3)NC(=O)[C@H](N)c3ccc(O)c(c3)Oc3cc(O)cc4c3)c3ccc(O)c(c3)-c3c(O[C@H]4O[C@H](CO)[C@@H](O)[C@@H](O)[C@@H]4O)cc(O)cc3[C@@H](C(=O)O)NC2=O)O[C@@H](CO)[C@@H](O)[C@@H]1O`: the IC50 entry (in test [1]; in [2]; in [3]; at Vasopressin V1a receptor; on Adenosine receptor A2a; in test [4]) was “Not Active” throughout. Besides, the IC50 entry (in test [5]; against Adenosine receptor A1; in test [6] (cho-k1); in [7]; in test [8]) was “Not Active” throughout. The Ki entry in test [5] and in [7] was “Not Active” in each case.

For the compound `Clc1ccc2c(c1)C(N1CCNCC1)=Nc1ccccc1O2` [AMOXAPINE], the IC50 result (in [1]; in [2]; in test [3]; against Vasopressin V1a receptor; on Adenosine receptor A2a; in [4]) was “Not Active” each time. The half-inhibitory concentration (IC50) entry (at Adenosine receptor A1; in test [8]) was “Not Active” in each case.

In the case of `COc1cc2c(c(OC)c1OC)-c1ccc(OC)c(=O)cc1[C@@H](NC(C)=O)CC2` [COLCHICINE], the concentration for half-maximal inhibition (IC50) result (in test [1]; in test [2]; in test [3]; on Vasopressin V1a receptor; on Adenosine receptor A2a; in test [4]) was “Not Active” each time. Moreover, the concentration for half-maximal inhibition (IC50) result (against Adenosine receptor A1; in test [6] (cho-k1); in test [8]) was “Not Active” each time.

As for `CN1CCC(=C2c3ccccc3C=Cc3ccccc32)CC1` [CYPROHEPTADINE], the IC50 entry (in [1]; in test [2]; in test [3]; at Vasopressin V1a receptor; on Adenosine receptor A2a; in [4]) was “Not Active” throughout. The IC50 result on Adenosine receptor A1 is “Not Active”; in [6] (read-out: IC50) it was 16 nM; in [8], “Not Active”. Moreover, the Ki in test [6] (read-out: Ki) was found to be 2.19 nM.

For `CC/C(=C(/CC)c1ccc(O)cc1)c1ccc(O)cc1` [DIETHYLSTILBESTROL], the 50% inhibitory concentration (IC50) result in test [1], in test [2], in [3], in [4], in [6] (cho-k1) and in test [8] was “Not Active” in each case.

In the case of `C=CCN1CC[C@]23c4c5ccc(O)c4O[C@H]2C(=O)CC[C@@]3(O)[C@H]1C5` [NALOXONE], the half-maximal inhibitory concentration (IC50) entry (in [1]; in test [2]; in test [3]; at Vasopressin V1a receptor; on Adenosine receptor A2a; in test [4]) was “Not Active” in each case. Further, the IC50 result (against Adenosine receptor A1; in test [6] (cho-k1); in test [8]) was “Not Active” throughout.

In the case of `CC(C)NCC(O)COc1cccc2ccccc12` (stereo unspecified) [PROPRANOLOL], the IC50 entry (in test [1]; in [2]; in [3]; on Vasopressin V1a receptor; at Adenosine receptor A2a; in [4]) was “Not Active” each time. The half-maximal inhibitory concentration (IC50) entry (on Adenosine receptor A1; in [6] (cho-k1); in [8]) was “Not Active” throughout.

In the case of `O=C(c1ccc(OCCN2CCCCC2)cc1)c1c(-c2ccc(O)cc2)sc2cc(O)ccc12` [RALOXIFENE], the IC50 result (in [1]; in test [2]; in test [3]; against Vasopressin V1a receptor; in test [4]; in test [5]) was “Not Active” in each case. The IC50 entry (against Adenosine receptor A1; in [6] (cho-k1); in [7]; in test [8]) was “Not Active” in each case. Besides, the Ki entry in test [5] and in test [7] was “Not Active” in each case.

On to `CC(C)c1nc(CN(C)C(=O)N[C@H](C(=O)N[C@@H](Cc2ccccc2)C[C@H](O)[C@H](Cc2ccccc2)NC(=O)OCc2cncs2)C(C)C)cs1` [RITONAVIR], for which the 50% inhibitory concentration (IC50) result (in test [1]; in test [2]; in test [3]; on Adenosine receptor A2a; in [4]; in test [5]) was “Not Active” in each case. The IC50 entry (at Adenosine receptor A1; in test [6] (cho-k1); in [7]; in [8]) was “Not Active” in each case. For the same compound, the inhibition constant (Ki) result in [5] and in test [7] was “Not Active” each time.

On to `C[C@@H](N)[C@H]1CC[C@H](C(=O)Nc2ccncc2)CC1` [Y-27632], for which the IC50 entry (in test [1]; in [2]; in test [3]; at Vasopressin V1a receptor; at Adenosine receptor A2a; in test [4]) was “Not Active” in each case. In addition, the half-inhibitory concentration (IC50) entry (in [5]; on Adenosine receptor A1; in test [6] (cho-k1); in test [7]) was “Not Active” each time. The inhibitory constant (Ki) result in [5] and in test [7] was “Not Active” in each case.

The record behind these values is ChEMBL document CHEMBL1909046, “DrugMatrix in vitro pharmacology data”.
